Source: patent US20150105252A1, “SUBSTITUTED PYRAZOLES AS HERBICIDES” (E I DU PONT DE NEMOURS AND COMPANY, priority 2013, published 2015)

Assays:
pigweed = experiment: Test A postemergence; assay type: in vivo, Amaranthus retroflexus
In short: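 Scoring was visual, on a scale where 100 means complete control and 0 means no effect, comparing treated with untreated plants around 10 days post-application. Compounds in surfactant-containing non-phytotoxic solvent were sprayed onto soil preemergence or onto one- to two-leaf seedlings (2–10 cm) postemergence.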

ducksalad = experiment: Test B flood; assay type: in vivo, Heteranthera limosa; conditions: 250 g ai/ha, visual rating on 0 to 100 scale (0 no effect, 100 complete control), 13 to 15 days
In short: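 Plants were grown to the 2-leaf stage and pots flooded to 3 cm above soil. Compounds were applied directly into the paddy water, with depth kept for the test. After 13–15 days in greenhouse, response was rated visually against controls on a 0 (no effect) to 100 (complete control) scale.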

ryegrass, Italian [1] = experiment: Test C preemergence; assay type: in vivo, Lolium multiflorum; conditions: preemergence; for Plant response rating, Ryegrass, Italian: 125 g ai/ha, scale 0 to 100, 0 = no effect, 100 = complete control
In short: (§1)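 Greenhouse pot test: preemergence application onto freshly seeded loam/sand mix, postemergence application onto seedlings (1–4 leaves, 2–18 cm) in peat-vermiculite substrate. Responses scored visually 13 to 15 days later relative to controls, where 0 means no effect and 100 means complete control; a dash indicates no result.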

crabgrass, large = experiment: Test C preemergence; assay type: in vivo, Digitaria sanguinalis; conditions: preemergence; for Plant response rating, Crabgrass, Large: 125 g ai/ha, scale 0 to 100, 0 = no effect, 100 = complete control
In short: as §1

foxtail, giant = experiment: Test C preemergence; assay type: in vivo, Setaria faberii; conditions: preemergence; for Plant response rating, Foxtail, Giant: 125 g ai/ha, scale 0 to 100, 0 = no effect, 100 = complete control
In short: as §1

nutsedge, yellow = experiment: Test C preemergence; assay type: in vivo, Cyperus esculentus; conditions: preemergence; for Plant response rating, Nutsedge, Yellow: 125 g ai/ha, scale 0 to 100, 0 = no effect, 100 = complete control
In short: as §1

ragweed = experiment: Test C preemergence; assay type: in vivo, Ambrosia elation; conditions: preemergence; for Plant response rating, Ragweed: 125 g ai/ha, scale 0 to 100, 0 = no effect, 100 = complete control
In short: as §1

waterhemp [2] = experiment: Test C preemergence; assay type: in vivo, Amaranthus rudis; conditions: preemergence; for Plant response rating, Waterhemp: 125 g ai/ha, scale 0 to 100, 0 = no effect, 100 = complete control
In short: as §1

ryegrass, Italian [3] = experiment: Test C postemergence; assay type: in vivo, Lolium multiflorum
In short: as §1

corn = experiment: Test C postemergence; assay type: in vivo, Zea mays; conditions: for Plant response rating (scale of 0 to 100 where 0 is no effect and 100 is complete control), Corn: Postemergence, 31 g ai/ha, visually evaluated after 13 to 15 days; for Corn plant response rating / Plant response rating, Corn: postemergence; for Corn plant response rating: 62 g ai/ha, scale 0 to 100
In short: as §1

lambsquarters = experiment: Test C postemergence; assay type: in vivo, Chenopodium album; conditions: for Plant response rating (scale of 0 to 100 where 0 is no effect and 100 is complete control), Lambsquarters: Postemergence, 31 g ai/ha, visually evaluated after 13 to 15 days; for Lambsquarters plant response rating / Plant response rating, Lambsquarters: postemergence; for Lambsquarters plant response rating: 62 g ai/ha, scale 0 to 100
In short: as §1

waterhemp [4] = experiment: Test C postemergence; assay type: in vivo, Amaranthus rudis; conditions: for Waterhemp plant response rating / Plant response rating, Waterhemp: postemergence; for Waterhemp plant response rating: scale 0 to 100
In short: as §1

[5] = Postemergence, 500 g ai/ha, 0 to 100 scale (0 no effect, 100 complete control)
[6] = 31 g ai/ha, visual rating, scale 0 to 100 (0 no effect, 100 complete control), 13 to 15 days
[7] = 62 g ai/ha, scale 0 to 100 (0 no effect, 100 complete control), 13 to 15 days
[8] = 250 g ai/ha, scale 0 to 100, 0 is no effect, 100 is complete control
[9] = Postemergence, 31 g ai/ha, visually evaluated after 13 to 15 days
[10] = postemergence, 250 g ai/ha, scale 0 to 100 (0 no effect, 100 complete control)
[11] = postemergence, 125 g ai/ha, scale 0 to 100, 0 no effect, 100 complete control
[12] = 250 g ai/ha, scale 0 to 100 (0 no effect, 100 complete control)
[13] = 125 g ai/ha, scale 0 to 100, 0 no effect, 100 complete control

SMILES: CCCNC(=O)c1cc(OCC)n(Cc2ccnc(OC(F)F)c2)n1 [Compound 136]
- Pigweed plant response rating (pigweed; [5]): 100
- Pigweed plant response rating (pigweed; postemergence, 125 g ai/ha, about 10 days, visual rating on 0 to 100 scale (0 no effect, 100 complete control)): 80
- Plant response rating, Ducksalad (ducksalad): 80
- Ryegrass, Italian plant response rating (ryegrass, Italian [1]; [6]): 55
- Ryegrass, Italian plant response rating (ryegrass, Italian [1]; [7]): 90
- Plant response rating, Ryegrass, Italian (ryegrass, Italian [1]; 13 to 15 days): 95
- Ryegrass, Italian plant response rating (ryegrass, Italian [1]; [8]): 95
- Crabgrass, Large plant response rating (crabgrass, large; [6]): 100
- Crabgrass, Large plant response rating (crabgrass, large; [7]): 100
- Plant response rating, Crabgrass, Large (crabgrass, large; 13 to 15 days): 100
- Crabgrass, Large plant response rating (crabgrass, large; [8]): 100
- Foxtail, Giant plant response rating (foxtail, giant; [6]): 100
- Foxtail, Giant plant response rating (foxtail, giant; [7]): 100
- Plant response rating, Foxtail, Giant (foxtail, giant; 13 to 15 days): 100
- Foxtail, Giant plant response rating (foxtail, giant; [8]): 100
- Nutsedge, Yellow plant response rating (nutsedge, yellow; [6]): 30
- Nutsedge, Yellow plant response rating (nutsedge, yellow; [7]): 35
- Plant response rating, Nutsedge, Yellow (nutsedge, yellow; 13 to 15 days): 50
- Nutsedge, Yellow plant response rating (nutsedge, yellow; [8]): 85
- Ragweed plant response rating (ragweed; [6]): 45
- Ragweed plant response rating (ragweed; [7]): 75
- Plant response rating, Ragweed (ragweed; 13 to 15 days): 75
- Ragweed plant response rating (ragweed; [8]): 98
- Waterhemp plant response rating (waterhemp [2]; [6]): 85
- Waterhemp plant response rating (waterhemp [2]; [7]): 100
- Plant response rating, Waterhemp (waterhemp [2]; 13 to 15 days): 100
- Waterhemp plant response rating (waterhemp [2]; [8]): 100
- Plant response rating (scale of 0 to 100 where 0 is no effect and 100 is complete control), Ryegrass, Italian (ryegrass, Italian [3]; [9]): 5
- Ryegrass, Italian plant response rating (ryegrass, Italian [3]; postemergence, 62 g ai/ha, scale 0 to 100): 5
- Plant response rating, Ryegrass, Italian (ryegrass, Italian [3]; [10]): 30
- Plant response rating, Ryegrass, Italian (ryegrass, Italian [3]; [11]): 5
- Plant response rating (scale of 0 to 100 where 0 is no effect and 100 is complete control), Corn (corn): 10
- Corn plant response rating (corn): 10
- Plant response rating, Corn (corn; [12]): 25
- Plant response rating, Corn (corn; [13]): 15
- Plant response rating (scale of 0 to 100 where 0 is no effect and 100 is complete control), Lambsquarters (lambsquarters): 80
- Lambsquarters plant response rating (lambsquarters): 85
- Plant response rating, Lambsquarters (lambsquarters; [12]): 95
- Plant response rating, Lambsquarters (lambsquarters; [13]): 98
- Plant response rating (scale of 0 to 100 where 0 is no effect and 100 is complete control), Waterhemp (waterhemp [4]; [9]): 60
- Waterhemp plant response rating (waterhemp [4]; 62 g ai/ha): 70
- Plant response rating, Waterhemp (waterhemp [4]; [12]): 90
- Plant response rating, Waterhemp (waterhemp [4]; [13]): 75

SMILES: CCCc1cc(C(=O)NC2CC2)nn1Cc1ccnc(OC(F)F)c1 [Compound 205]
- Pigweed plant response rating (pigweed; Postemergence, 125 g ai/ha, 0 to 100 scale, 0 no effect, 100 complete control): 100
- Pigweed plant response rating (pigweed; [5]): 100
- Plant response rating, Ducksalad (ducksalad): 100
- Ryegrass, Italian plant response rating (ryegrass, Italian [1]; [6]): 60
- Ryegrass, Italian plant response rating (ryegrass, Italian [1]; [7]): 70
- Plant response rating, Ryegrass, Italian (ryegrass, Italian [1]; 13 to 15 days): 90
- Ryegrass, Italian plant response rating (ryegrass, Italian [1]; [8]): 95
- Crabgrass, Large plant response rating (crabgrass, large; [6]): 100
- Crabgrass, Large plant response rating (crabgrass, large; [7]): 100
- Plant response rating, Crabgrass, Large (crabgrass, large; 13 to 15 days): 100
- Crabgrass, Large plant response rating (crabgrass, large; [8]): 100
- Foxtail, Giant plant response rating (foxtail, giant; [6]): 100
- Foxtail, Giant plant response rating (foxtail, giant; [7]): 100
- Plant response rating, Foxtail, Giant (foxtail, giant; 13 to 15 days): 100
- Foxtail, Giant plant response rating (foxtail, giant; [8]): 100
- Nutsedge, Yellow plant response rating (nutsedge, yellow; [6]): 40
- Nutsedge, Yellow plant response rating (nutsedge, yellow; [7]): 65
- Plant response rating, Nutsedge, Yellow (nutsedge, yellow; 13 to 15 days): 75
- Nutsedge, Yellow plant response rating (nutsedge, yellow; [8]): 90
- Ragweed plant response rating (ragweed; [6]): 80
- Ragweed plant response rating (ragweed; [7]): 100
- Plant response rating, Ragweed (ragweed; 13 to 15 days): 98
- Ragweed plant response rating (ragweed; [8]): 100
- Waterhemp plant response rating (waterhemp [2]; [6]): 100
- Waterhemp plant response rating (waterhemp [2]; [7]): 100
- Plant response rating, Waterhemp (waterhemp [2]; 13 to 15 days): 100
- Waterhemp plant response rating (waterhemp [2]; [8]): 100
- Plant response rating, Ryegrass, Italian (ryegrass, Italian [3]; [10]): 5
- Plant response rating, Ryegrass, Italian (ryegrass, Italian [3]; [11]): 5
- Plant response rating (scale of 0 to 100 where 0 is no effect and 100 is complete control), Corn (corn): 10
- Corn plant response rating (corn): 10
- Plant response rating, Corn (corn; [12]): 40
- Plant response rating, Corn (corn; [13]): 20
- Plant response rating (scale of 0 to 100 where 0 is no effect and 100 is complete control), Lambsquarters (lambsquarters): 85
- Lambsquarters plant response rating (lambsquarters): 85
- Plant response rating, Lambsquarters (lambsquarters; [12]): 85
- Plant response rating, Lambsquarters (lambsquarters; [13]): 90
- Plant response rating, Waterhemp (waterhemp [4]; [12]): 85
- Waterhemp plant response rating (waterhemp [4]): 70
